In paper PMC11684002 (Journal of medicinal chemistry, 2020):

Key:
Photostationary states = type: physicochemical; conditions: for PSS, % trans-isomer, dark: dark-adapted
PPARγ = conditions: read-out: PPARγ agonist EC50; cited from earlier work
[1] = tested on: human PPAR response element (PPRE), endogenous PPARγ; assay: PPRE reporter gene assay in PPARγ expressing HepG2 cells; type: cell-based; conditions: trans-isomer
[2] = biological target: T1, human PPARα ligand binding domain (Gal4 hybrid) (Homo sapiens, UniProt Q07869); assay: Gal4 hybrid reporter gene assay, PPARα; conditions: trans-isomer in the dark, HEK293T
T1 sequence (Q07869 239-466 limits assumed): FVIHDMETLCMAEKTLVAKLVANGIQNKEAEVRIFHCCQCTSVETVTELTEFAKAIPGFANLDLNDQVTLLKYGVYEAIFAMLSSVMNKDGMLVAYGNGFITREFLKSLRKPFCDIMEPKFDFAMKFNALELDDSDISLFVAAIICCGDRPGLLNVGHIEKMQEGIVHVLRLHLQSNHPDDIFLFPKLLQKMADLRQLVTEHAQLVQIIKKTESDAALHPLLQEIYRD

[3] = after 365 nm illumination, CDCl3
[4] = after 460 nm illumination, CDCl3

Compound | PSS, % trans-isomer, 365 nm (Photostationary states; [3]) [%] | PSS, % trans-isomer, 460 nm (Photostationary states; [4]) [%] | PSS, % trans-isomer, dark (Photostationary states; CDCl3) [%] | EC50 (PPARγ) [nM] | other results
O=C(c1ccccc1)c1ccccc1N[C@@H](Cc1ccc(/N=N/c2ccccc2)cc1)C(=O)O [AzoGW1929, (S,E)-2-((2-benzoylphenyl)amino)-3-(4-(phenyldiazenyl)phenyl)propanoic acid] | – | – | – | – | PSS, % trans-isomer, 365 nm (Photostationary states; after 365 nm illumination for five minutes, MeOD-d4): 67%; PSS, % trans-isomer, 460 nm (Photostationary states; after 460 nm illumination for five minutes, MeOD-d4): 76%; PSS, % trans-isomer, dark (Photostationary states; MeOD-d4): 95%
O=C1NC(=S)NC(=O)C1=Cc1ccc(OCc2ccccc2)c(Cl)c1 [MDG548] | – | – | – | 215 | –

Now from value to compound, other results behind:

PSS, % trans-isomer, 365 nm (Photostationary states; [3]) [%] | PSS, % trans-isomer, 460 nm (Photostationary states; [4]) [%] | PSS, % trans-isomer, dark (Photostationary states; CDCl3) [%] | Compound | EC50 (PPARγ) [nM] | other results
23 | 83 | 99 | Cc1ccccc1-c1ccc(/N=N/c2ccc(CC3SC(=O)NC3=O)cc2)cc1 (stereo not shown) [AzoRosi-4, (E)-5-(4-((2′-methyl-[1,1′-biphenyl]-4-yl)diazenyl)benzyl)thiazolidine-2,4-dione] | – | PPRE activation at 10 μM [1]: some PPRE activation was observed
4 | 80 | 100 | O=C1NC(=O)C(Cc2ccc(/N=N/c3ccccc3)cc2)S1 (stereo not shown) [AzoRosi, (E)-5-(4-(phenyldiazenyl)benzyl)thiazolidine-2,4-dione] | – | PPARα activation at 10 μM [2]: 8% activation at 10 μM
